# From US11518760B2 (Liverpool School of Tropical Medicine, priority 2017, dated 2022)
# Test system: C6/36 Aedes albopictus cell line infected with Wolbachia pipientis (Wolbachia strain wAlbB)
# Test: In vitro insect cell line assay (anti-Wolbachia screen, SYTO 11 high content imaging)
# Format: cell-based
# Conditions: 168 h; C6/36 Aedes albopictus cells infected with Wolbachia pipientis wAlbB, 7 days incubation, SYTO 11 imaging; read-out: In vitro anti-Wolbachia activity
# Outline: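 Wolbachia wAlbB-infected C6/36 Aedes albopictus cells were exposed to compounds at a final 5 μM for 7 days at 26 °C, with DMSO-medium wells as untreated controls. Cells were then stained with SYTO 11 for 15 min, imaged by high-content microscopy and scored by texture analysis.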
row,SMILES,EC50
1,"CC(C)N(C)c1nc(N2CCCN2c2ccccc2C(F)(F)F)c2cccnc2n1 [Example 190, N-isopropyl-N-methyl-4-(2-(2-(trifluoromethyl)phenyl)pyrazolidin-1-yl)pyrido[2,3-d]pyrimidin-2-amine]",100 to 1000 nM
2,"FC1(F)CCN(Cc2nc(NCc3cccnc3C(F)(F)F)c3cccnc3n2)CC1 [Example 228, 2-((4,4-difluoropiperidin-1-yl)methyl)-N-((2-(trifluoromethyl)pyridin-3-yl)methyl)pyrido[2,3-d]pyrimidin-4-amine]",100 to 1000 nM
3,"FC1(F)CCN(c2nc(N3CCC3c3ccccc3C(F)(F)F)c3cccnc3n2)C1 (stereo not drawn) [Example 215, 2-(3,3-difluoropyrrolidin-1-yl)-4-(2-(2-(trifluoromethyl)phenyl)azetidin-1-yl)pyrido(2,3-d]pyrimidine]",10 to 100 nM
4,"Fc1ccc(CNc2ncnc3ccccc23)c(C(F)(F)F)c1 [Example 72, N-(4-fluoro-2-(trifluoromethyl)benzyl)quinazolin-4-amine]",10 to 100 nM
5,"CS(=O)(=O)C1CCN(c2nc(NCc3ccccc3C(F)(F)F)c3cccnc3n2)CC1 [Example 243, 2-(4-(methylsulfonyl)piperidin-1-yl)-N-(2-(trifluoromethyl)benzyl)pyrido[2,3-d]pyrimidin-4-amine]",100 to 1000 nM
6,"CC(C)Nc1nc(NCc2ccc(Cl)cc2)c2sccc2n1 [Example 19, N^4-(4-chlorobenzyl)-N^2-isopropylthieno[3,2-d]pyrimidine-2,4-diamine]",1000 to 100000 nM
7,"CC(C)Nc1nc(NCc2ccc(C(F)(F)F)nc2)c2cccnc2n1 [Example 130, N^2-isopropyl-N^4-((6-(trifluoromethyl)pyridin-3-yl)methyl)pyrido[2,3-d]pyrimidine-2,4-diamine]",1000 to 100000 nM
8,"CC(C)N(C)c1nc(NCc2ccccc2Cl)c2sccc2n1 [Example 33, N^4-(2-chlorobenzyl)-N^2-isopropyl-N^2-methylthieno[3,2-d]pyrimidine-2,4-diamine]",100 to 1000 nM
9,"CN1CCN(c2nc(NCc3ccccc3C(F)(F)F)c3sccc3n2)CC1 [Example 95, 2-(4-methylpiperazin-1-yl)-N-(2-(trifluoromethyl)benzyl)thieno[3,2-d]pyrimidin-4-amine]",1000 to 100000 nM
10,"FC(F)(F)c1ccccc1CNc1nc(N2CCC(Cl)CC2)nc2ncccc12 [Example 198, 2-(4-chloropiperidin-1-yl)-N-(2-(trifluoromethyl)benzyl)pyrido[2,3-d]pyrimidin-4-amine]",1 to 10 nM
11,N#Cc1nc(NCc2ccccc2C(F)(F)F)c2sccc2n1 [Example 80],10 to 100 nM
12,"CC(C)Nc1nc(NCc2ccc(Cl)cc2)c2ccccc2n1 [Example 136, N^4-(4-chlorobenzyl)-N^2-isopropylquinazoline-2,4-diamine]",1000 to 100000 nM
13,"Cc1nc(N(C)C(C)c2ccccc2C(F)(F)F)c2sc(C(C)(C)O)cc2n1 (stereo not drawn) [Example 70, 2-(2-methyl-4-(methyl(1-(2-(trifluoromethyl)phenyl)ethyl)amino)thieno[3,2-d]pyrimidin-6-yl)propan-2-ol]",1000 to 100000 nM
14,"CC(C)Nc1nc(NCc2ccccc2S(C)(=O)=O)c2cccnc2n1 [Example 127, N^2-isopropyl-N^4-(2-(methylsulfonyl)benzyl)pyrido[2,3-d]pyrimidine-2,4-diamine]",100 to 1000 nM
15,"Fc1ccccc1CNc1ncnc2ccsc12 [Example 22, N-(2-fluorobenzyl)thieno[3,2-d]pyrimidin-4-amine]",1000 to 100000 nM
16,"FC(F)(F)c1ccccc1CNc1nc(NC2CNC2)nc2ncccc12 [Example 141, N^2-(azetidin-3-yl)-N^4-(2-(trifluoromethyl)benzyl)pyrido[2,3-d]pyrimidine-2,4-diamine]",100 to 1000 nM
17,[2H]c1cc2nc(C)nc(N(C)C(C)c3ccccc3C(F)(F)F)c2s1 (stereo not drawn) [Example 71],10 to 100 nM
18,"Oc1nc(NCc2cccnc2C(F)(F)F)c2cccnc2n1 [Example 182, 4-(((2-(trifluoromethyl)pyridin-3-yl)methyl)amino)pyrido[2,3-d]pyrimldin-2-ol]",1000 to 100000 nM
19,"N#CC1CCCN1c1nc(NCc2cccnc2C(F)(F)F)c2cccnc2n1 (stereo not drawn) [Example 238, 1-(4-(((2-(trifluoromethyl)pyridin-3-yl)methyl)amino)pyrido[2,3-d]pyrimidin-2-yl)pyrrolidine-2-carbonitrile]",10 to 100 nM
20,"FC(F)(F)c1ccccc1CNc1ncnc2ccsc12 [Example 23, N-(2-(trifluoromethyl)benzyl)thieno[3,2-d]pyrimidin-4-amine]",10 to 100 nM
21,"N#CC1CN(c2nc(NCc3ccccc3C(F)(F)F)c3cccnc3n2)CCO1 (stereo not drawn) [Example 283, 4-(4-((2-(trifluoromethyl)benzyl)amino)pyrido[2,3-d]pyrimidin-2-yl)morpholine-2-carbonitrile]",0.01 to 1 nM
22,"FC(F)(F)OCC1CCCN1c1nc(NCc2cccnc2C(F)(F)F)c2cccnc2n1 (stereo not drawn) [Example 299, 2-(2-((trifluoromethoxy)methyl)pyrrolidin-1-yl)-N-((2-(trifluoromethyl)pyridin-3-yl)methyl)pyrido[2,3-d]pyrimidin-4-amine]",< 0.01 nM
23,"O=C(Nc1ncnc2ccsc12)c1ccccc1C(F)(F)F [Example 37, N-(thieno[3,2-d]pyrimidin-4-yl)-2-(trifluoromethyl)benzamide]",1000 to 100000 nM
24,"FC(F)(F)c1ccccc1C1CCN1c1nc(N2CCC(Cl)CC2)nc2ncccc12 (stereo not drawn) [Example 212, 2-(4-chloropiperidin-1-yl)-4-(2-(2-(trifluoromethyl)phenyl)azetidin-1-yl)pyrido[2,3-d]pyrimidine]",100 to 1000 nM
25,CC(=O)c1nc(NCc2ccccc2C(F)(F)F)c2sccc2n1 [Example 87],100 to 1000 nM
26,"FC(F)(F)c1ncccc1CNc1nc(N2CCOC3(CC3)C2)nc2ncccc12 [Example 256, 2-(4-oxa-7-azaspiro[2.5]octan-7-yl)-N-((2-(trifluoromethyl)pyridin-3-yl)methyl)pyrido[2,3-d]pyrimidin-4-amine]",< 0.01 nM
27,"CC1COC[C@@H](C)N1c1nc(NCc2cccnc2C(F)(F)F)c2cccnc2n1 (stereo partly drawn) [Example 275, 2-((3R)-3,5-dimethylmorpholino)-N-((2-(trifluoromethyl)pyridin-3-yl)methyl)pyrido[2,3-d]pyrimidin-4-amine]",0.01 to 1 nM
28,"FC(F)C1CN(c2nc(NCc3ccccc3C(F)(F)F)c3cccnc3n2)C1 [Example 276, 2-(3-(difluoromethyl)azetidin-1-yl)-N-(2-(trifluoromethyl)benzyl)pyrido[2,3-d]pyrimidin-4-amine]",< 0.01 nM
29,"COc1ccc(CNc2nc(NC(C)C)nc3ccccc23)cc1OC [Example 140, N^4-(3,4-dimethoxybenzyl)-N^2-isopropylquinazoline-2,4-diamine]",100 to 1000 nM

# Test system: Wolbachia in adult Brugia malayi
# Test: Adult Brugia malayi mouse model, Wolbachia wsp qPCR
# Format: in vivo
# Conditions: Table 5A; BALB/c CCR3−/− mice, oral; dose/duration stands in the drawing (not visible)
# Text: In an adult Brugia malayi mouse model treatment groups (BALB/c CCR3−/− mice, 6-8 week old) received compounds by oral delivery for 7-28 days beginning at 6-10 weeks post-infection intraperitoneal with Brugia malayi third-stage larvae. Following treatment, at 12 weeks past-infection, adult worms and released microfilariae were recovered from the peritoneal cavity, counted and staged for sex. Genomic DNA was extracted from individual adult worms (10/group) and quantification of the Wolbachia surface protein (wBm-wsp) performed by quantitative PCR.
# Treatment dosage unit is mg/kg (MK) and duration stated in days (d). Abbreviations: MIN (minocycline), bid (twice daily), Ms (mesylate). Data in Table 5A are expressed as a reduction in Wolbachia load in comparison to the vehicle control group.
# Table 5B provides a comparison of two stereoisomers in the adult Brugia malayi mouse model above at a range of doses and durations of treatment. Data in Table 5B are expressed as a reduction in Wolbachia load in comparison to the vehicle control group.
row,SMILES,% Wolbachia reduction cf median Vehicle
1,CC1COCCN1c1nc(NCc2cccnc2C(F)(F)F)c2cccnc2n1 (stereo not drawn) [drawing 692],97.8%
2,C[C@H]1COCCN1c1nc(NCc2cccnc2C(F)(F)F)c2cccnc2n1 [drawing 694],98.5%
3,CC(C)N(C)c1nc(NCc2cccnc2C(F)(F)F)c2cccnc2n1 [drawing 691],99.4%
4,CC1COCCN1c1nc(NCc2cccnc2C(F)(F)F)c2cccnc2n1 (stereo not drawn) [drawing 693],98.8%
